In US20200148682A1, “AKT ISOZYME-SPECIFIC COVALENT INHIBITORS DERIVED FROM REDOX-SIGNALING LIPIDS” (Cornell University, priority 2017, published 2020):
“Also recorded” adds a separate entry of the source.

What was measured:
Format in all cases: cell-based
MDA-MB-468 cells = test: Cell cycle analysis using flow cytometry
Procedure: MDA-MB-468 cells in a 6-well plate at 10% confluence were treated with HNE alkyne or the indicated drug at PI60 or PI80 concentration for 72 hours at 37° C. Negative control contained the equivalent volume of DMSO. Cells were grown and analyzed in separate batches of 1-2 replicates per condition that were run 2-3 times each. Each time the data points were normalized to the control set for each batch. At the indicated time post compound treatment, the culture medium was aspirated and the adherent cells were detached from the plate using trypsin, quenched with complete media, centrifuged (700 g), washed once with PBS, centrifuged (700 g), resuspended in PBS, then fixed with 70% ethanol for 24 hours. The cell suspensions were spun down at 1,000 g and washed with 500 μl of PBS twice. Each cell pellet was treated with 500 μL staining solution containing 50 μl of Ribonuclease A (≥70 Kunitz units/mg proteins, R6513, Sigma-Aldrich) and 50 μl of a propidium iodide (1 mg/ml, Sigma-Aldrich) solution in PBS with 1% BSA. The resulting solution was incubated with agitation at room temperature for 30 min in the dark.
The stained cells were assayed on a BD LSR II flow cytometer. FlowJo® was used to deconvolute the signals. Cells were grouped first by forward and side scatter (area), then that group was regrouped using forward (width) versus forward (area) scatter to give single cells. Cells were than analyzed using cellular DNA content to quantitate the percentage of cells in the respective phases (G1, S, G2/M and sub-G0) of the cell cycle.

[1] = system: Akt1, Akt2, Akt3 isoforms; test: Akt isoform selectivity of covalent inhibition (in-gel fluorescence, transfected HEK293T cells)
Text: Overexpressed Akt proteins were labeled with Cy5-small-molecule-fluorophore-conjugated azide (Cy5-azide) using standard click chemistry. FIG. 16A top gel is an image showing Cy5 channel (used to evaluate the extent of covalent binding on each Akt protein). The lysate from non-transfected HEK 293T cells was also used for comparison. M, molecular weight ladder. […] FIG. 16B top gel is an image showing Cy5 channel. M is a molecular weight ladder. FIG. 16B bottom is an image showing western blots probing Halo and actin, respectively. […] Error bars designate s.d. […] Normalized fluorescent signal (NFS) was calculated from the following equation: NFS=[(Cy5(X μM drug)−Cy5(No transfection))/Halo(X μM drug)]÷[(Cy5(no drug)−Cy5(No transfection))/Halo(no drug)]. The relative fluorescent signal (RFS) is calculated from the following equation: RFS=(Cy5(X μM drug)/Halo(X μM drug)) (Cy5(no drug)/Halo(no drug))
Cell transfection with the designated plasmid encoding a given HaloTag-Akt fusion gene was carried out following the general procedure described in Example 12. After 20-24 hours, the transfection media were aspirated and replaced with fresh 2 mL rinse MEM medium supplemented with 3% FBS containing the indicated concentration of inhibitor or the equivalent final volume of DMSO and the plates were incubated for the indicated period of time. […]

Halo-Akt3 = target: T1, Halo-Akt3 (Homo sapiens, UniProt Q9Y243); test: In-gel fluorescence assay (Cy5-azide click) of covalent labeling in transfected HEK293T cells; details: 5 μM, 48 hours
T1 construct: expressed in transfected cells; host or cells: HEK293T
Procedure: HEK293T cells were transfected with Halo-Akt3 for 20 hours, then treated with the stated compound (5 μM, 48 hours). After this time, cells were lysed and the labeling was assayed by click chemistry. […] FIGS. 19A, 19C top gels are images showing in gel fluorescence, Cy5 channel. M is a molecular weight ladder. FIG. 19A, 19C lower panels are images of western blots (probing for Halo and actin, respectively) transferred from the same gel as the top image. […] FIGS. 19E-19F are graphs showing quantitation of in-gel Cy5 signal intensity, divided by the western blot signal for Halo.
Cell transfection with the designated plasmid encoding a given HaloTag-Akt fusion gene was carried out following the general procedure described in Example 12. After 20-24 hours, the transfection media were aspirated and replaced with fresh 2 mL rinse MEM medium supplemented with 3% FBS containing the indicated concentration of inhibitor or the equivalent final volume of DMSO and the plates were incubated for the indicated period of time. Cells were then harvested and lysed following the general procedure described in Examples 11 and 13. A portion of the lysate was made up to 25 μL final volume containing, in final concentrations, 5% t-BuOH, [2 mM TCEP, 1% SDS, 1 mM CuSO4, 0.1 mM Cu(TBTA), 10 μM Cy5 azide made up as a 10× stock in water] and 1.0 mg/mL lysate protein. The samples were incubated at 37° C. for 30 min and subsequently quenched with 8 μL of 4×Laemmeli dye containing 6% f ME. After an additional 5-min incubation at 37° C., samples were resolved on a 10% SDS-PAGE gel following the general procedure described in Example 14. After electrophoresis, the gel was rinsed three times with ddH2O and imaged on a Bio-Rad Chemi-doc-MP Imager. Where applicable, the gel was transferred to a PVDF membrane for western blot analysis following the general procedure described in Example 15.

MDA-MB-468 = test: Cell viability assay (AlamarBlue); details: MDA-MB-468, 72 hours
Procedure: (§1) FIGS. 22A and 22D are graphs showing results of cytotoxicity assays for MDA-MB-468 (FIG. 22A) and BT-549 (FIG. 22D). […] Stated cell lines were plated in 96-well plates (3000 cells per well) in the presence of the stated concentration of inhibitor. After 72 hours, the number of viable cells was analyzed by AlamarBlue®. Proliferation inhibition 50% (PI50) values were calculated by fitting data to “PI50 equation” (EQN 4) (FIG. 22C). MDA cells were transfected with the stated siRNA using lipofectamine 3000 for 12 hours. […] After 72 hours, the number of viable cells was calculated using AlamarBlue®. FIG. 22F is a schematic showing AlamarBlue® viability assay. […] MDA-MB-468 cells were treated with the stated drugs for 72 hours at the PI60 and PI80. After this time, cells were harvested, fixed/permeabilized with ethanol and DNA content was stained using propidium iodide (visualized in the 488-3 channel). RNA was removed simultaneously using RNAse. After 30 min at room temperature, cells were analyzed by flow cytometry.
(§2) Indicated cells were plated in a 96-well plate containing the DMEM complete medium (see Example 11 for complete medium formulation, 100 μL per well) with a density of 3,000-5,000 cells per well for 12 hours followed by the addition of varying concentrations of inhibitors in rinse medium (100 μL). The cells were allowed to grow for 72 hours and 100 μL of the culture medium was removed from each well. This was followed by the addition of 10 μL AlamarBlue® reagent to each well. The fluorescence emission signals at 590 nm were read by Cytation 3 cell imaging multi-mode reader (BioTeK) using an excitation wavelength of 560 nm. Curve fitting and data analysis were performed using Prism software.

BT-549 = test: Cell viability assay (AlamarBlue); details: BT-549, 72 hours
Procedure: as §1, §2

T1 sequence (Q9Y243 whole entry): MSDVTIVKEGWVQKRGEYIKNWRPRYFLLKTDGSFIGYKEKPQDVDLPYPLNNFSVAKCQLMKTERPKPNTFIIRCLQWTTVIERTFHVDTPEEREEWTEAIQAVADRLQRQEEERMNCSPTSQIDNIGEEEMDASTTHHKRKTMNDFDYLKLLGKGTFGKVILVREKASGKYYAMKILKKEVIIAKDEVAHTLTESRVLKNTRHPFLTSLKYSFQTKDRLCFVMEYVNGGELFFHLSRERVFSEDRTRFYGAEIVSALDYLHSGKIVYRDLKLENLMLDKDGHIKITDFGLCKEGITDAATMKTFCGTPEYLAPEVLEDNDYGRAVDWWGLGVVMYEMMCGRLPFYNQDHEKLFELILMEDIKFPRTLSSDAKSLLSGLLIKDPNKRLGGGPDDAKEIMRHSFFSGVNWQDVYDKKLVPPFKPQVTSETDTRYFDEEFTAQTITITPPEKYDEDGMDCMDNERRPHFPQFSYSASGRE

CC(C)NC[C@@H](C(=O)N1CCN(c2ncnc3c2[C@H](C)C[C@H]3O)CC1)c1ccc(Cl)cc1 [GDC-0068]
G1/G0 (percentage of cells in phase) (MDA-MB-468 cells; drug at PI60, 72 hours): 52.6
G2/M (percentage of cells in phase) (MDA-MB-468 cells; drug at PI60, 72 hours): 28.3
S (percentage of cells in phase) (MDA-MB-468 cells; drug at PI60, 72 hours): 12.1
subG0 (percentage of cells in phase) (MDA-MB-468 cells; drug at PI60, 72 hours): 1.64

CCn1c(-c2nonc2N)nc2c(C#CC(C)(C)O)ncc(OC[C@H]3CCCNC3)c21 [GSK-69063]
G1/G0 (percentage of cells in phase) (MDA-MB-468 cells; drug at PI80, 72 hours): 47.7
G2/M (percentage of cells in phase) (MDA-MB-468 cells; drug at PI80, 72 hours): 30.0
S (percentage of cells in phase) (MDA-MB-468 cells; drug at PI80, 72 hours): 14.3
subG0 (percentage of cells in phase) (MDA-MB-468 cells; drug at PI80, 72 hours): 0.92

C#CCCCC(O)C=CC=O (stereo not shown) [HNE alkyne]
G1/G0 (percentage of cells in phase) (MDA-MB-468 cells; drug at PI60, 72 hours): 40.0
G2/M (percentage of cells in phase) (MDA-MB-468 cells; drug at PI60, 72 hours): 30.8
S (percentage of cells in phase) (MDA-MB-468 cells; drug at PI60, 72 hours): 26.3
subG0 (percentage of cells in phase) (MDA-MB-468 cells; drug at PI60, 72 hours): 3.7
G1/G0 (percentage of cells in phase) (MDA-MB-468 cells; drug at PI80, 72 hours): 28.5
G2/M (percentage of cells in phase) (MDA-MB-468 cells; drug at PI80, 72 hours): 22
S (percentage of cells in phase) (MDA-MB-468 cells; drug at PI80, 72 hours): 31.3
subG0 (percentage of cells in phase) (MDA-MB-468 cells; drug at PI80, 72 hours): 18.2

CCCCCC(O)/C=C/C=O (stereo not shown) [HNE, hydroxynonenal]
effect on cell cycle (MDA-MB-468 cells; 72 hours): S-phase arrest; also recorded: loss of G1

C#CCCCCC(O)C(=C)C(=O)NC1(c2ccc(-c3nc4ccn5c(=O)[nH]nc5c4cc3-c3ccccc3)cc2)CCC1.Cl (stereo not shown) [MK-G, 8-(4-(1-(3-Hydroxy-2-methylenenon-8-ynamido)cyclobutyl)phenyl)-3-oxo-9-phenyl-2,3-dihydro-[1,2,4]triazolo[3,4-f][1,6]naphthyridin-7-ium Chloride]
Akt isozyme selectivity of inhibition [1]: no isozyme-selective inhibition

C#CCCCC(O)CCC(=O)NC1(c2ccc(-c3nc4ccn5c(=O)[nH]nc5c4cc3-c3ccccc3)cc2)CCC1.Cl (stereo not shown) [MK-HNA, 8-(4-(1-(4-Hydroxynon-8-ynamido)cyclobutyl)phenyl)-3-oxo-9-phenyl-2,3-dihydro-[1,2,4]triazolo[3,4-f][1,6]naphthyridin-7-ium Chloride]
covalent labeling of Halo-Akt3 (Halo-Akt3): no covalent labeling was observed

C#CCCCC/C=C/C(=O)NC1(c2ccc(-c3nc4ccn5c(=O)[nH]nc5c4cc3-c3ccccc3)cc2)CCC1 [MK-dHNE, (E)-8-(4-(1-(Non-2-en-8-ynamido)cyclobutyl)phenyl)-3-oxo-9-phenyl-2,3-dihydro-[1,2,4]triazolo[3,4-f][1,6]naphthyridin-7-ium Chloride]
toxicity / potency relative to MK-2206 (MDA-MB-468): less effective than MK-2206
toxicity / potency relative to MK-2206 (BT-549): less effective than MK-2206
covalent labeling of Halo-Akt3 (Halo-Akt3): able to elicit covalent labeling
